Test results from PubChem BioAssay AID488818 (NMMLSC, 2010).
Calls of active or inactive are those of the source.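 The calls were made as follows: active = fluorescence change from solvent-only control to top dose above 25; inactive = the rest.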

test system: S. cerevisiae s288c autofluorescence, flow cytometry MCF, 3 h; assay: fluorescence artefact check, untagged yeast strain – cherry pick 3, multiplex, flow cytometry, artefact control for yeast TOR pathway GFP screen, SAR follow-up (AID 488818); conditions: at 33.3 µM; stronger effect = higher value

Fluorescence change, inactive:
Oc1c(Br)cc(Br)c2cccnc12 3.5
Oc1c(Cl)cc(Cl)c2cccnc12 2.85
Cc1ccc2c(Cl)cc(Cl)c(O)c2n1 0.81
Oc1ccc(Cl)c2cccnc12 0.19
COc1ccc(OC)c(Nc2nc(NCCC(C)C)nc(N)c2[N+](=O)[O-])c1 0.12
Oc1c(I)cc(Cl)c2cccnc12 2.85
NC(=O)c1ccnc2c(O)cccc12 0.06
O=C(O)c1ccc2cccc(O)c2n1 0.18
CCOC(=O)CS(=O)(=O)c1nc(-c2ccccc2)cc(C(F)(F)F)n1 0.24
Cc1nc2c(O)cccc2cc1CO 0.06
O=C(O)c1ccc2cccnc2c1O 0.12
N#Cc1c(N)nc(N)nc1Nc1ccc(Br)cc1 0.12
COCCNc1nc(N)c([N+](=O)[O-])c(Nc2ccc(F)cc2)n1 0.18
COc1cccc2c(Cl)c(CCCl)c(C)nc12 0.24
Cc1cccc(C)c1Nc1ncnc(N)c1[N+](=O)[O-] 0.12
Nc1ncnc(Nc2cc(Cl)cc(Cl)c2)c1[N+](=O)[O-] 0.12
Nc1nc(NCCOCCO)nc(Nc2cccc(F)c2)c1[N+](=O)[O-] 0.12
Cc1nc(Nc2ccc(Br)cc2Br)c([N+](=O)[O-])c(=O)[nH]1 0
CNc1nc(N)c([N+](=O)[O-])c(Nc2cccc(Cl)c2)n1 0.08
CCC(C)Nc1nc(N)c([N+](=O)[O-])c(Nc2ccccc2OC)n1 (stereo unspecified) 0.06
CCc1sc(C(=O)Nc2nc(-c3ccccn3)cs2)cc1C 0.65
CNc1nc(N)c([N+](=O)[O-])c(Nc2ccccc2OC)n1 0.08
CC(=O)NC(C)c1cc(Cl)c2cccnc2c1O (stereo unspecified) 0.25
COc1ccc(OC)c2c(=O)cc(C(=O)O)[nH]c12 0.06
COCC(C)NC(=O)CCS(=O)(=O)c1nc(-c2ccc(OC)cc2)cc(C(F)(F)F)n1 (stereo unspecified) 0.12
Cn1cccc1C(=O)Nc1nc(-c2ccccn2)cs1 0.3
Oc1ccc(F)c2cccnc12 0.06
COc1ccccc1Nc1nc(NCCO)nc(N)c1[N+](=O)[O-] 0.19
Cc1ccc(NN2C(=O)C=C(c3ccccc3)C2=O)cc1 0.65
CC1=NNC(=O)/C1=C\c1cn(-c2ccccc2)nc1-c1ccc(F)cc1 0.24
COc1ccccc1-c1cc(C(F)(F)F)nc(S(=O)(=O)CCCC(=O)O)n1 0.5
COc1ccc(Nc2nc(NN)nc(C)c2[N+](=O)[O-])cc1 0.06
O=C(Nc1nc(-c2ccccn2)cs1)c1ccccc1-n1cnnn1 0.07
CCC(C)Nc1nc(N)c([N+](=O)[O-])c(Nc2cc(OC)ccc2OC)n1 (stereo unspecified) 0.8
COc1ccccc1-c1cc(C(F)(F)F)nc(S(=O)(=O)CCCC(=O)NC(C)C)n1 0.18
Cc1ccc(C(=O)Nc2nc(-c3ccccn3)cs2)o1 0.24
COCCCNc1nc(N)c([N+](=O)[O-])c(Nc2ccccc2OC)n1 0.06
CNc1nc(C)c([N+](=O)[O-])c(Nc2ccc(OC)cc2)n1 0.06
COc1ccccc1Nc1nc(NCCC(C)C)nc(N)c1[N+](=O)[O-] 0.07
Cc1ccc2c(C)ccc(O)c2n1 0
CCCOCc1ccc(O)c2ncccc12 0.25
